Data: PubChem BioAssay (NCI)
In brackets after ≈: the same amount, converted by molar mass.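 Following 48 hours of exposure in 96-well plates, responses at five concentrations were used to interpolate endpoints linearly. GI50: concentration for 50% inhibition of growth. TGI is the concentration that stops growth completely.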

Experiments:
Assay in all cases: NCI anticancer screen, dose series, 48 h
RXF 393 renal = test system: RXF 393 renal
CAKI-1 renal = test system: CAKI-1 renal
OVCAR-3 ovarian = test system: OVCAR-3 ovarian
OVCAR-8 ovarian = test system: OVCAR-8 ovarian
UACC-257 melanoma = test system: UACC-257 melanoma
UO-31 renal = test system: UO-31 renal
A549 NSCLC = test system: A549 NSCLC
SK-MEL-5 melanoma = test system: SK-MEL-5 melanoma
COLO 205 colon = test system: COLO 205 colon
U251 CNS = test system: U251 CNS

`Clc1ccc(N=c2oc3ccccc3cc2-c2nc3ccccc3[nH]2)c(Cl)c1` was tested, and the TGI (RXF 393 renal) was 41.7 µM, the TGI (CAKI-1 renal) was > 100 µM and the TGI (OVCAR-3 ovarian) was > 100 µM. For the same compound, the TGI (OVCAR-8 ovarian) was > 100 µM, the TGI (UACC-257 melanoma) was > 100 µM and the TGI (UO-31 renal) was > 100 µM.
With `NCCCCNCCCNC(=O)c1nc(-c2csc(CCN)n2)sc1Cl` the TGI (A549 NSCLC) was > 100 µM, the TGI (RXF 393 renal) was > 100 µM and the TGI (CAKI-1 renal) was > 100 µM. The TGI (SK-MEL-5 melanoma) was > 100 µM, the TGI (COLO 205 colon) was > 100 µM and the TGI (OVCAR-3 ovarian) was > 100 µM. For the same compound, the TGI (OVCAR-8 ovarian) was > 100 µM, the TGI (UACC-257 melanoma) was > 100 µM and the TGI (U251 CNS) was > 100 µM. For the same compound, the TGI (UO-31 renal) was > 100 µM.
In the case of `COc1cc(S(=O)(=O)Nc2ccc(C3=NNC(c4ccccc4)C3)cc2)ccc1F` (configuration not stated), the GI50 (A549 NSCLC) is reported as 53.9 µM, the TGI (A549 NSCLC) is reported as > 100 µM and the GI50 (CAKI-1 renal) is reported as 37.3 µM. The TGI (CAKI-1 renal) was > 100 µM, the GI50 (SK-MEL-5 melanoma) was 13.9 µM and the TGI (SK-MEL-5 melanoma) was 31.6 µM. The GI50 (COLO 205 colon) was 51.4 µM, the TGI (COLO 205 colon) was > 100 µM and the GI50 (OVCAR-3 ovarian) was 50.3 µM. For the same compound, the TGI (OVCAR-3 ovarian) was > 100 µM, the GI50 (OVCAR-8 ovarian) was 68.1 µM and the TGI (OVCAR-8 ovarian) was > 100 µM. For the same compound, the GI50 (UACC-257 melanoma) was 29.3 µM, the TGI (UACC-257 melanoma) was > 100 µM and the GI50 (U251 CNS) was 43.5 µM. For the same compound, the TGI (U251 CNS) was > 100 µM, the GI50 (UO-31 renal) was > 100 µM and the TGI (UO-31 renal) was > 100 µM.
`COc1cc(/C=C2/N=C(c3ccccc3)N(C3=NNC4(C(=O)N3)c3ccccc3-c3ccccc34)NC2=O)ccc1O` showed a GI50 (A549 NSCLC) of 15 µg/mL, a TGI (A549 NSCLC) of 15 µg/mL and a GI50 (RXF 393 renal) of 26.7 µg/mL (≈ 48 µM). The TGI (RXF 393 renal) was 48.6 µg/mL, the GI50 (CAKI-1 renal) was 22.4 µg/mL and the TGI (CAKI-1 renal) was 75.1 µg/mL. For the same compound, the GI50 (SK-MEL-5 melanoma) was 20.3 µg/mL, the TGI (SK-MEL-5 melanoma) was 39.6 µg/mL and the GI50 (COLO 205 colon) was 55.2 µg/mL. For the same compound, the TGI (COLO 205 colon) was > 150 µg/mL, the GI50 (OVCAR-3 ovarian) was 24.8 µg/mL and the TGI (OVCAR-3 ovarian) was 53.5 µg/mL. For the same compound, the GI50 (OVCAR-8 ovarian) was 24 µg/mL, the TGI (OVCAR-8 ovarian) was 45.5 µg/mL and the GI50 (UACC-257 melanoma) was 27.2 µg/mL. For the same compound, the TGI (UACC-257 melanoma) was 51.8 µg/mL, the GI50 (U251 CNS) was 24.5 µg/mL and the TGI (U251 CNS) was 44.8 µg/mL. The GI50 (UO-31 renal) was 33.4 µg/mL and the TGI (UO-31 renal) was 111 µg/mL.
`C#CCn1c(=O)c(C#N)c(O)c2cc3ccccc3nc21` was tested, and the TGI (A549 NSCLC) was > 100 µM, the TGI (RXF 393 renal) was > 100 µM and the TGI (CAKI-1 renal) was > 100 µM. For the same compound, the TGI (SK-MEL-5 melanoma) was > 100 µM, the TGI (COLO 205 colon) was > 100 µM and the TGI (OVCAR-3 ovarian) was > 100 µM. For the same compound, the TGI (OVCAR-8 ovarian) was > 100 µM, the TGI (UACC-257 melanoma) was > 100 µM and the TGI (U251 CNS) was > 100 µM. The TGI (UO-31 renal) was > 100 µM.
`O=C(N[C@H]1c2ccsc2/C(=N/O)[C@H]1O)C(F)(F)F` was tested, and the TGI (A549 NSCLC) was > 100 µM, the TGI (RXF 393 renal) was > 100 µM and the TGI (CAKI-1 renal) was > 100 µM. The TGI (SK-MEL-5 melanoma) was > 100 µM, the TGI (COLO 205 colon) was > 100 µM and the TGI (OVCAR-3 ovarian) was > 100 µM. The TGI (OVCAR-8 ovarian) was > 100 µM, the TGI (UACC-257 melanoma) was > 100 µM and the TGI (U251 CNS) was > 100 µM. For the same compound, the TGI (UO-31 renal) was > 100 µM.
For `CC1(Cl)CC2C(CC1Sc1nnnn1-c1ccccc1)C2(C)C` (configuration not stated), the TGI (A549 NSCLC) was > 100 µM, the TGI (RXF 393 renal) was > 100 µM and the TGI (SK-MEL-5 melanoma) was > 100 µM. For the same compound, the TGI (COLO 205 colon) was > 100 µM, the TGI (OVCAR-3 ovarian) was > 100 µM and the TGI (OVCAR-8 ovarian) was > 100 µM. For the same compound, the TGI (UACC-257 melanoma) was > 100 µM and the TGI (UO-31 renal) was > 100 µM.
Work on `CC(=O)Oc1ccc(C2COc3cc(OC(C)=O)c(OC(C)=O)cc3C2)cc1` (configuration not stated) yielded a TGI (A549 NSCLC) of 57.3 µM, a TGI (RXF 393 renal) of 23.8 µM and a TGI (CAKI-1 renal) of 27.3 µM. It also gave a TGI (SK-MEL-5 melanoma) of 6.63 µM, a TGI (COLO 205 colon) of 35.4 µM and a TGI (OVCAR-3 ovarian) of 25.2 µM. It also gave a TGI (OVCAR-8 ovarian) of 35.6 µM, a TGI (UACC-257 melanoma) of 34.9 µM and a TGI (U251 CNS) of 60.4 µM. For the same compound, the TGI (UO-31 renal) was 59.4 µM.
